Experimental data taken from patent US4994439A, “Transmembrane formulations for drug administration” (California Biotechnology Inc., priority 1989, dated 1991).

Legend:
[1] = Critical micellar concentration by rhodamine 6G method; type: physicochemical; settings: for CMC expressed on a molar basis: for the mixture: total surfactant; for CMC (as percent w/v): rhodamine 6G method
Procedure: The CMC is not a single value, but a range of concentrations. Because the range is relatively narrow, a single concentration within this transition zone is defined as the CMC. The CMC for each individual molecule and for each mixture can be determined experimentally in variety of ways; that illustrated below is the rhodamine 6G method of Carey, M.C., et al J Colloid Interface Sci (1969) 31:382-396. In this method, a low concentration of rhodamine 6G is added as a probe in a series of dispersions or solutions of the material to be tested. Where the solute concentration is below the CMC the probe molecule has a lambdamax at 523 nm; above the CMC, the probe binds to the micelle, which causes the lambdamax to increase to approximately 532 nm. By plotting the wavelength of the maximum absorption of the rhodamine 6G probe as a function of concentration of test materials, two lines of differing slopes are obtained which intersect at the CMC. The value of the intersection is then taken as the value of the CMC for the particular dispersion.
When this procedure is conducted for solutions of STDHF, Solulan C-24, or a 1:1 mixture of these materials, the CMC values (as percent w/v) obtained are 0.14% for STDHF; 0.028% for Solulan C-24; and 0.012% for the mixture of the two--i.e., 0.006% STDHF plus 0.006% Solulan C-24. Thus, for the mixture of STDHF and Solulan C-24, the CMC for the mixture is lower than that for either component alone. These values establish minimum concentration levels needed for the invention composition, and also establish that the two components form mixed micelles. If there were two separate populations of micelles, the CMC as measured by the above-described method would be equal to that of Solulan C-24. The existence of mixed micelles can be verified with other data as described below.

[2] = Quasi-elastic light-scattering of micelles; type: physicochemical
Source text: Solulan C-24 forms micelles with a radius of 75 angstroms; STDHF forms micelles with a radius of 17 angstroms, and the mixture (1:1 w/w) forms micelles with a radius of 40 angstroms.

[3] = Transport of insulin across rat nasal tissue (plasma insulin, delivery via the nares); type: in vivo; settings: 5IU/kg insulin intranasal, FIG. 5
Procedure: Efficacy in transport of insulin and of human growth hormone across rat nasal tissue was evaluated. Male Sprague-Dawley rats (Simonsen, Gilroy, CA, 240-300 gm) were anesthetized by subcutaneous injection of Acepromazine (3 mg/kg) followed 10 minutes later by intraperitoneal injections of inactin (100 mg/kg) for experiments shown in FIGS. 4-6 or by intraperitoneal (IP) injection of sodium pentobarbital (65 mg/kg), with additional doses given intravenously as necessary for experiments shown in FIGS. 7-8. A trachea tube was inserted to assist breathing.
In FIGS. 4-6, insulin or hGH was delivered directly via the nares; no esophageal cannula was inserted; the test solution (50 ul) was delivered 1 cm into the nasal cavity using PE 10 tubing attached to a Hamilton syringe.
In all cases, blood samples (0.5 ml) were drawn from a catheter in the right jugular vein and diluted with heparinized saline. Plasma (300-400 ul) was separated and stored at 4° C. for less than 48 hours prior to analysis of growth hormone using an immunoradiometric assay (Tandem R, Hybritech, Inc, San Diego, Calif.) or of insulin using a radioimmunoassay (Micromedic, ICN Micromedic Systems, Horsham, Pa.). […] Estimations of area under the curve (AUC) of plots of plasma insulin or hGH concentration versus time were calculated using the trapezoidal rule.

red blood cells = test: Red blood cell (RBC) lysis as a measure of toxicity; type: cell-based; settings: FIG. 3
Procedure: Consistent results were obtained when red blood cell (RBC) lysis was evaluated as a measure of toxicity and SGDHF was used as the fusidate component. […] Thus, the addition of the detergent appears to protect against the lytic effect of the fusidate.

CMC expressed on a molar basis [1]	CMC (as percent w/v) [1]	micelle radius [2]	time course of plasma insulin level [3]	Compound	RBC lysis (red blood cells; concentration range of 0-0.3%)	RBC lysis (red blood cells; 0.3% concentration)
2.0 mM	0.14%	17 angstroms	lower levels	CC(=O)O[C@H]1C[C@@]2(C)[C@@H](C[C@@H](O)[C@H]3[C@@]4(C)CC[C@@H](O)[C@@H](C)[C@@H]4CC[C@@]32C)/C1=C(\CCCC(C)C)C(=O)NCCS(=O)(=O)[O-].[Na+] [STDHF, sodium tauro-24,25-dihydrofusidate]	–	–
0.19 mM	0.028%	75 angstroms	lower levels	polyoxyethylene-24-cholesterol ether [Solulan C-24]	low values of RBC lysis	–
–	–	–	–	sodium glyco-24,25-dihydrofusidate [SGDHF]	–	100%
